Test results as given in US4348393A, “N-Aryl oxazolidinones, oxazolidinethiones, pyrrolidinones, pyrrolidines and thiazolidinones” (Delalande S.A., priority 1978, dated 1982).

Tests used:
[1] = test system: generalized trembling caused by dl-5-hydroxytryptophane; assay: Test A: potentiation in mice of generalized trembling caused by dl-5-hydroxytryptophane; type: in vivo; conditions: Mus musculus, po, mice, potentiation of trembling by dl-5-hydroxytryptophane 200 mg/kg interperitoneal, read-out: Test A ED 50
Method: Test A: Potentiation in mice of generalized trembling caused by an interperitoneal injection (200 mg/kg) of dl-5-hydroxytryptophane, following the protocol described by C. GOURET and G. RAYNAUD in J. Pharmacol. (Paris), (1974), 5, 231.

[2] = test system: ptosis observed one hour after reserpine; assay: Test B: antagonism of reserpine-induced ptosis in mice; type: in vivo; conditions: Mus musculus, 1 h, po, antagonism of ptosis one hour after reserpine 2 mg/kg intravenous, read-out: Test B ED 50
Method: Test B: Antagonism with respect to the ptosis observed one hour after an intravenous injection (2 mg/kg) of reserpine given to mice, following the protocol described by C.

[3] = Toxicity LD50 mouse; conditions: in vivo, po, read-out: Toxicity LD 50

Row | Structure (SMILES) | ED50 [1] | ED50 [2] | LD50 [3]
1 | COCC1CN(c2ccc(CCc3ccccc3)cc2)C(=O)O1 (stereo not drawn) [compound 192] | 5.8 mg/kg | 6 mg/kg | > 1000 mg/kg
2 | COCC1CN(c2ccc(-c3ccccc3)cc2)C(=O)O1 (stereo not drawn) [compound 195] | 1.2 mg/kg | 2.2 mg/kg | > 1000 mg/kg
3 | COCC1CN(c2ccc(OCc3cccc(Br)c3)cc2)C(=O)O1 (stereo not drawn) [compound 197] | 2.2 mg/kg | 6.7 mg/kg | > 1000 mg/kg
4 | COCC1CN(c2ccc(OCc3cccc(I)c3)cc2)C(=O)O1 (stereo not drawn) [compound 198] | 40 mg/kg | 34 mg/kg | > 1000 mg/kg
5 | CC(C)NCC1CN(c2ccc(OCc3cccc([N+](=O)[O-])c3)cc2)C(=O)O1 (stereo not drawn) [compound 201] | 7.4 mg/kg | 6.8 mg/kg | > 1000 mg/kg
6 | O=C1OC(CN2CCOCC2)CN1c1ccc(OCc2cccc([N+](=O)[O-])c2)cc1 (stereo not drawn) [compound 202] | 10 mg/kg | 10 mg/kg | > 1000 mg/kg
7 | CCNCC1CN(c2ccc(OCc3cccc([N+](=O)[O-])c3)cc2)C(=O)O1 (stereo not drawn) [compound 203] | 5.2 mg/kg | 1.4 mg/kg | 1000 mg/kg
8 | N#Cc1cccc(COc2ccc(N3CC(CN)OC3=O)cc2)c1 (stereo not drawn) [compound 205] | 10.1 mg/kg | 3 mg/kg | > 1000 mg/kg
9 | CN(C)CC1CN(c2ccc(OCc3cccc(C#N)c3)cc2)C(=O)O1 (stereo not drawn) [compound 206] | 6 mg/kg | 4.3 mg/kg | > 1000 mg/kg
10 | NCC1CN(c2ccc(OCc3cc(Cl)cc([N+](=O)[O-])c3)cc2)C(=O)O1 (stereo not drawn) [compound 207] | 9.1 mg/kg | 7.6 mg/kg | > 1000 mg/kg
11 | CCC(=O)OCC1CN(c2ccc(OCc3cccc([N+](=O)[O-])c3)cc2)C(=S)O1 (stereo not drawn) [compound 208] | 10 mg/kg | 4.2 mg/kg | > 1000 mg/kg
12 | N#Cc1cc(COc2ccc(N3CC(CO)OC3=S)cc2)ccc1F (stereo not drawn) [compound 209] | 7 mg/kg | 6.7 mg/kg | 1000 mg/kg
13 | CCCOCC1CN(c2ccc(OCc3cccc([N+](=O)[O-])c3)cc2)C(=S)O1 (stereo not drawn) [compound 210] | 26 mg/kg | 7.4 mg/kg | > 1000 mg/kg
14 | COCC1CN(c2ccc(OCC3CCCC3)cc2)C(=S)O1 (stereo not drawn) [compound 211] | 2 mg/kg | 1.2 mg/kg | 1000 mg/kg
15 | N#CCCCOc1ccc(N2CC(CO)OC2=S)cc1 (stereo not drawn) [compound 212] | 4.3 mg/kg | 12 mg/kg | 1000 mg/kg
16 | COCC1CN(c2ccc(OCc3cccnc3)cc2)C(=S)O1 (stereo not drawn) [compound 213] | 3 mg/kg | 2 mg/kg | 1000 mg/kg
17 | COCC1CN(c2ccc(OCCC(C)C)cc2)C(=S)O1 (stereo not drawn) [compound 214] | 0.84 mg/kg | 1.8 mg/kg | 1000 mg/kg
18 | N#CCCCCOc1ccc(N2CC(CO)OC2=S)cc1 (stereo not drawn) [compound 215] | 6.2 mg/kg | 10 mg/kg | > 1000 mg/kg
19 | CCOCC1CN(c2ccc(OCc3cccc([N+](=O)[O-])c3)cc2)C(=S)O1 (stereo not drawn) [compound 216] | 5 mg/kg | 3 mg/kg | 1000 mg/kg
20 | COCC1CN(c2ccc(OCc3cc(C#N)cc([N+](=O)[O-])c3)cc2)C(=S)O1 (stereo not drawn) [compound 218] | 7.2 mg/kg | 13.5 mg/kg | > 1000 mg/kg
21 | COCC1CN(c2ccc(OCc3cccc([N+](=O)[O-])c3)cc2)C(=O)S1 (stereo not drawn) [compound 219, para (metanitro) benzyloxyphenyl-3 methoxymethyl-5 thiazolidinone-2] | 7 mg/kg | 13.5 mg/kg | > 1000 mg/kg
22 | OCC1CCN(c2ccc(OCc3ccccc3)cc2)C1 (stereo not drawn) [compound 220, N-parabenzyloxyphenyl hydroxymethyl-3 pyrrolidine] | 50 mg/kg | 50 mg/kg | > 1000 mg/kg
23 | COCC1CN(c2ccc(OCCCCCl)cc2)C(=O)O1 (stereo not drawn) [compound 234] | 0.6 mg/kg | 4 mg/kg | > 1000 mg/kg
